In general, IC50 refers to the midpoint of a concentration-inhibition curve.

The assay concerns IL-1β production in PMA-differentiated THP-1 cells. The assay is described as follows: IL-1β production in PMA-differentiated THP-1 cells stimulated with gramicidin (hTHP-1 assay, 2% fetal bovine serum; Procedures 1-3). In kind it is cell-based, human. As to conditions: read-out: IC50. The procedure, abridged:
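IL-1β released into supernatants was read by HTRF after 2 h gramicidin (5 μM) challenge. Before challenge, compounds (3-fold dilutions, top 100 μM, 0.37% DMSO) were given 1 h on THP-1 cells differentiated with PMA (20 ng/ml, 16-18 h) and held in 2% FBS medium.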

Setting [1] is: Homo sapiens, THP-1, hTHP-1 assay containing 2% fetal bovine serum, Table B2, class symbols.
The mark [2] stands for this setting: hTHP-1 assay containing 2% fetal bovine serum, Table B2, class symbols.
Where [3] appears, read: Homo sapiens, THP-1, hTHP-1 assay containing 2% fetal bovine serum, Table B2, given as bound.
Setting [4] is: hTHP-1 assay containing 2% fetal bovine serum, Table B2, given as bound.

Read-outs that look alike come from different tables or passages of the source.

On to `CC(C)N(C)c1ccc(S(N)(=O)=NC(=O)Nc2c3c(cc4c2CCC4)CCC3)cc1` (single isomer, unassigned) [Example 615, (R) or (S)-N′-((1,2,3,5,6,7-hexahydro-s-indacen-4-yl)carbamoyl)-4-(isopropyl(methyl)amino) benzenesulfonimidamide], for which the IC50 under setting [1] was in the range of 5000 to 30000 nM.
Turning to `CN(C)Cc1ccc(S(N)(=O)=NC(=O)Nc2c3c(cc4c2CCC4)CCC3)cn1` (single isomer, unassigned) [Example 616, (S) or (R)-6-((dimethylamino)methyl)-N′-((1,2,3,5,6,7-hexahydro-s-indacen-4-yl)carbamoyl) pyridine-3-sulfonimidamide], the IC50 under setting [2] fell in the range of 5000 to 30000 nM.
Take `CN(C)Cc1ccc(S(N)(=O)=NC(=O)Nc2c3c(cc4c2CCC4)CCC3)cn1` (single isomer, unassigned) [Example 617, (R) or (S)-6-((dimethylamino)methyl)-N′-((1,2,3,5,6,7-hexahydro-s-indacen-4-yl)carbamoyl) pyridine-3-sulfonimidamide]: the IC50 under setting [2] was in the range of 200 to 1000 nM.
`CC(C)Cc1ccc(S(N)(=O)=NC(=O)Nc2c3c(cc4c2CCC4)CCC3)cc1` (single isomer, unassigned) [Example 618, (S) or (R)-N′-((1,2,3,5,6,7-hexahydro-s-indacen-4-yl)carbamoyl)-4-isobutylbenzene-sulfonimidamide]: the IC50 under setting [3] is more than 30000 nM.
Regarding `CC(C)Cc1ccc(S(N)(=O)=NC(=O)Nc2c3c(cc4c2CCC4)CCC3)cc1` (single isomer, unassigned) [Example 619, (R) or (S)-N′-((1,2,3,5,6,7-hexahydro-s-indacen-4-yl)carbamoyl)-4-isobutylbenzene-sulfonimidamide], the IC50 under setting [4] is more than 30000 nM.
`NS(=O)(=NC(=O)Nc1c2c(cc3c1CCC3)CCC2)c1ccc(CN2CCC(F)(F)C2)cc1` (single isomer, unassigned) [Example 620, (R) or (S)-4-((3,3-difluoropymolidin-1-yl)methyl)-N′-((1,2,3,5,6,7-hexahydro-s-indacen-4-yl)carbamoyl) benzenesulfonimidamide]: the IC50 under setting [1] lay in the range of 1000 to 5000 nM.
Regarding `NS(=O)(=NC(=O)Nc1c2c(cc3c1CCC3)CCC2)c1ccc(CN2CCC(F)(F)C2)cc1` (single isomer, unassigned) [Example 621, (S) or (R)-4-((3,3-difluoropymolidin-1-yl)methyl)-N′-((1,2,3,5,6,7-hexahydro-s-indacen-4-yl)carbamoyl) benzenesulfonimidamide], the IC50 under setting [3] is more than 30000 nM.
The same measure, in the same setting: next, `NS(=O)(=NC(=O)Nc1c2c(cc3c1CCC3)CCC2)c1ccc(C2CCNC2)cc1F` (single isomer, unassigned) [Example 622, (R,S) or (S,S)-2-fluoro-N′-((1,2,3,5,6,7-hexahydro-s-indacen-4-yl)carbamoyl)-4-pyrrolidin-3-yl) benzenesulfonimidamide]: more than 30000 nM.
With `NS(=O)(=NC(=O)Nc1c2c(cc3c1CCC3)CCC2)c1ccc(C2CCNC2)cc1F` (single isomer, unassigned) [Example 623, (S,S) or (R,S)-2-fluoro-N′-((1,2,3,5,6,7-hexahydro-s-indacen-4-yl)carbamoyl)-4-(- pyrrolidin-3-yl) benzenesulfonimidamide], the IC50 under setting [4] was more than 30000 nM.
Regarding `NS(=O)(=NC(=O)Nc1c2c(cc3c1CCC3)CCC2)c1ccc(C2CCNC2)cc1F` (single isomer, unassigned) [Example 624, (R,R) or (S,R)-2-fluoro-N′-((1,2,3,5,6,7-hexahydro-s-indacen-4-yl)carbamoyl)-4-pyrrolidin-3-yl) benzenesulfonimidamide], the IC50 under setting [2] lay within 200 to 1000 nM.
Consider `NS(=O)(=NC(=O)Nc1c2c(cc3c1CCC3)CCC2)c1ccc(C2CCNC2)cc1F` (single isomer, unassigned) [Example 625, (S,R) or (R,R)-2-fluoro-N′-((1,2,3,5,6,7-hexahydro-s-indacen-4-yl)carbamoyl)-4-pyrrolidin-3-yl) benzenesulfonimidamide], for which the IC50 under setting [2] lay in the range of 200 to 1000 nM.
With `CC(O)(CO)c1ncc(S(N)(=O)=NC(=O)Nc2c3c(cc4c2CCC4)CCC3)s1` (single isomer, unassigned) [Example 626], under setting [1], the IC50 lay within 8 to 40 nM.
For `CC(O)(CO)c1ncc(S(N)(=O)=NC(=O)Nc2c3c(cc4c2CCC4)CCC3)s1` (single isomer, unassigned) [Example 627, (R,S) or (S,S)-1,2-dihydroxypropan-2-yl)-N′-((l,2,3,5,6,7-hexahydro-s-indacen-4-yl) carbamoyl) thiazole-5-sulfonimidamide], the IC50 under setting [2] is 200 to 1000 nM.
Take `CC(O)(CO)c1ncc(S(N)(=O)=NC(=O)Nc2c3c(cc4c2CCC4)CCC3)s1` (single isomer, unassigned) [Example 628, (S,S) or (R,S)-1,2-dihydroxypropan-2-yl)-N′-((l,2,3,5,6,7-hexahydro-s-indacen-4-yl) carbamoyl) thiazole-5-sulfonimidamide]: under setting [2], the IC50 is 200 to 1000 nM.
For `CC(O)(CO)c1cc(F)c(S(N)(=O)=NC(=O)Nc2c3c(c(C#N)c4c2CCC4)CCC3)s1` (single isomer, unassigned) [Example 629, (S,R) or (R,R)-N′-((8-cyano-1,2,3,5,6,7-hexahydro-s-indacen-4-yl)carbamoyl)-5-(1,2-dihydroxypropan-2-yl)-3-fluorothiophene-2-sulfonimidamide], the IC50 under setting [2] lay in the range of 40 to 200 nM.
On the same count and under the same terms, next, `CC(O)(CO)c1cc(F)c(S(N)(=O)=NC(=O)Nc2c3c(c(C#N)c4c2CCC4)CCC3)s1` (single isomer, unassigned) [Example 630, (R,R) or (S,R)-N′-((8-cyano-1,2,3,5,6,7-hexahydro-s-indacen-4-yl)carbamoyl)-5-(1,2-dihydroxypropan-2-yl)-3-fluorothiophene-2-sulfonimidamide]: 8 to 40 nM.
The same measure, in the same setting: next, `CC(O)(CO)c1cc(F)c(S(N)(=O)=NC(=O)Nc2c3c(c(C#N)c4c2CCC4)CCC3)s1` (single isomer, unassigned) [Example 632]: 5000 to 30000 nM.
Same read-out and setting: under `CC(O)(CO)c1cc(F)c(S(N)(=O)=NC(=O)Nc2c3c(c(C#N)c4c2CCC4)CCC3)s1` (single isomer, unassigned) [Example 633] stands 5000 to 30000 nM; under `CC(O)(CO)c1ncc(S(N)(=O)=NC(=O)Nc2c3c(c(C#N)c4c2CCC4)CCC3)s1` (single isomer, unassigned) [Example 634], 200 to 1000 nM.
For the molecule `CC(O)(CO)c1ncc(S(N)(=O)=NC(=O)Nc2c3c(c(C#N)c4c2CCC4)CCC3)s1` (single isomer, unassigned) [Example 636, (S,R) or (R,R)-N′-((8-cyano-1,2,3,5,6,7-hexahydro-s-indacen-4-yl)carbamoyl)-2-(1,2-dihydroxypropan-2-yl)thiazole-5-sulfonimidamide], the IC50 under setting [2] was 40 to 200 nM.
Regarding `CC(O)(CO)c1ncc(S(N)(=O)=NC(=O)Nc2c3c(c(C#N)c4c2CCC4)CCC3)s1` (single isomer, unassigned) [Example 637, (R,R) or (S,R)-N′-((8-cyano-1,2,3,5,6,7-hexahydro-s-indacen-4-yl)carbamoyl)-2-(1,2-dihydroxypropan-2-yl)thiazole-5-sulfonimidamide], the IC50 under setting [2] is 200 to 1000 nM.
In the case of `CC(OC(F)F)c1ccc(S(N)(=O)=NC(=O)Nc2c3c(cc4c2CCC4)CCC3)cc1` (single isomer, unassigned) [Example 638], the IC50 under setting [2] lay in the range of 1000 to 5000 nM.
Still for that read-out and setting: next, `CC(OC(F)F)c1ccc(S(N)(=O)=NC(=O)Nc2c3c(cc4c2CCC4)CCC3)cc1` (single isomer, unassigned) [Example 640]: 1000 to 5000 nM.
Same read-out and setting: next, `CC(OC(F)F)c1ccc(S(N)(=O)=NC(=O)Nc2c3c(cc4c2CCC4)CCC3)cc1` (single isomer, unassigned) [Example 641]: 1000 to 5000 nM.
Still for that read-out and setting: next, `CC(OC(F)F)c1ccc(S(N)(=O)=NC(=O)Nc2c3c(cc4c2CCC4)CCC3)cc1` (single isomer, unassigned) [Example 642]: 5000 to 30000 nM.
With `CC(OC(F)F)c1ccc(S(N)(=O)=NC(=O)Nc2c3c(cc4c2CCC4)CCC3)cc1` (single isomer, unassigned) [Example 643], the IC50 under setting [3] is more than 30000 nM.
Regarding `CN(C)C(c1ccc(S(N)(=O)=NC(=O)Nc2c3c(cc4c2CCC4)CCC3)cc1)C(F)F` (single isomer, unassigned) [Example 644, (R,R) or (S,R)-4-(-1-(dimethylamino)-2,2-difluoroethyl)-N′-((1,2,3,5,6,7-hexahydro-s-indacen-4-yl)carbamoyl) benzenesulfonimidamide], the IC50 under setting [2] lay in the range of 200 to 1000 nM.
As for `CN(C)C(c1ccc(S(N)(=O)=NC(=O)Nc2c3c(cc4c2CCC4)CCC3)cc1)C(F)F` (single isomer, unassigned) [Example 645, (S,S) or (R,S)-4-(-1-(dimethylamino)-2,2-difluoroethyl)-N′-((1,2,3,5,6,7-hexahydro-s-indacen-4-yl)carbamoyl) benzenesulfonimidamide], under setting [4], the IC50 is more than 30000 nM.
For `CN(C)C(c1ccc(S(N)(=O)=NC(=O)Nc2c3c(cc4c2CCC4)CCC3)cc1)C(F)F` (single isomer, unassigned) [Example 646, (R,S) or (S,S)-4-(-1-(dimethylamino)-2,2-difluoroethyl)-N′-((1,2,3,5,6,7-hexahydro-s-indacen-4-yl)carbamoyl) benzenesulfonimidamide], under setting [4], the IC50 is more than 30000 nM.
For `CN(C)C(c1ccc(S(N)(=O)=NC(=O)Nc2c3c(cc4c2CCC4)CCC3)cc1)C(F)F` (single isomer, unassigned) [Example 647, (S,R) or (R,R)-4-(1-(dimethylamino)-2,2-difluoroethyl)-N′-((1,2,3,5,6,7-hexahydro-s-indacen-4-yl)carbamoyl) benzenesulfonimidamide], the IC50 under setting [2] fell in the range of 200 to 1000 nM.
